Reference: US12264170B2, “Antimicrobial organosilanes” (TOPIKOS SCIENTIFIC, INC., priority 2019, dated 2025)
In brackets after ≈: the same amount, converted by molar mass. Read-outs that look alike come from different tables or passages of the source.

Key:
S. pyogenes ATCC 51339 = assay: MIC microdilution assay; type: cell-based, Steptococcus pyogenes; settings: broth +5% defibrinated sheep blood, 35±2° C. 18 to 20 hours, two values given
Experimental: (§1) Strain numbers starting with “ATCC” were acquired from the American Type Culture Collection (Manassas, VA), while strain numbers starting with “CDC” were acquired from the Centers for Disease Control and Prevention (Atlanta, GA). All strains were maintained as −80° C. frozen glycerol stocks. S. aureus and P. aeruginosa were grown overnight on Tryptic Soy Agar (TSA) plates at 35±2° C., ambient atmosphere, while S. pyogenes was grown overnight on TSA+5% defibrinated sheep blood at 35±2° C., 5% CO2. All fungal species (i.e. C. albicans, C. auris and C. herbarum) were grown on Sabouraud Dextrose Agar (SDA) plates. C. herbarum was grown at 25±2° C. for 5 to 7 days, while all other fungal strains were grown at 35±2° C. overnight.
(§2) Test articles Compound 2 (batch #2G13A0.368) and Compound 23 (batch #2G17A0.372) were received and stored at 4° C. The antibiotic Tobramycin and antifungal Amphotericin B were used as quality control (QC) compounds for the MIC assay. Stock solutions of 3.2 mg/mL Tobramycin (Sigma-Aldrich, cat #T1783-500MG) and 3.2 mg/mL Amphotericin B (CP Lab Chemicals, cat #TOK-A007-1G) were prepared in sterile ultrapure water.
(§3) For bacteria strains, a few colonies of each strain were collected with a sterile swab and used to make a McFarland 0.5 standard solution (approximately 1×10^8 CFU/mL) in sterile PBS. The McFarland was then diluted 1:180 in Cation Adjusted Muller-Hinton Broth (CAMHB) for S. aureus and P. aeruginosa, and in CAVHIIB+5% defibrinated sheep blood for S. pyogenes. 90 μL of this inoculum was combined with 10 μL of the 10× test article in a 96-well plate for a final concentration of 1×.
(§4) All bacterial-strain MIC 96-well plates were incubated at 35±2° C. for 18 to 20 hours, while all Candida MIC 96-well plates were incubated at 35±2° C. for 24 to 48 hours. C. herbarum MIC 96-well plates were incubated at 25±2° C. for 3 to 5 days, until growth was visible in the growth control wells. After incubation, the 96-well plates were examined visually and on a spectrophotometer at absorbance OD650. […]

[1] = system: Cladosporium herbarum ATCC MYA-4682; assay: MIC microdilution assay; type: cell-based; settings: Cladosporium herbarum; C. herbarum ATCC MYA-4682; RPMI media; 25±2° C. 3 to 5 days; two values given; read-out: MIC
Experimental: as §1
Test articles Compound 2 (batch #2G13A0.368) and Compound 23 (batch #2G17A0.372) were received and stored at 4° C. The antibiotic Tobramycin and antifungal Amphotericin B were used as quality control (QC) compounds for the MIC assay. […]
All bacterial-strain MIC 96-well plates were incubated at 35±2° C. for 18 to 20 hours, while all Candida MIC 96-well plates were incubated at 35±2° C. for 24 to 48 hours. […] After incubation, the 96-well plates were examined visually and on a spectrophotometer at absorbance OD650. […]

Candida auris CDC 0385 = assay: MIC microdilution assay (Example 32); type: cell-based; settings: Candidozyma auris, CDC0385; C. auris CDC 0385; RPMI media; 35±2° C. 24 to 48 hours; two values given; read-out: MIC
Experimental: (§5) Strain IDs starting with “ATCC” were acquired from the American Type Culture Collection (Manassas, VA), strain IDs starting with “Eurofins” were acquired from Eurofins (Herndon, VA), while strain IDs starting with “CDC” were acquired from the Centers for Disease Control and Prevention (Atlanta, GA). All strains were maintained as −80° C. frozen glycerol stocks. S. aureus and P. aeruginosa were grown overnight on Tryptic Soy Agar (TSA) plates at 35±2° C., ambient atmosphere, while S. pyogenes was grown overnight on TSA+5% defibrinated sheep blood at 35±2° C., 5% CO2. C. jejuni was grown for 48 hours on TSA+5% defibrinated sheep blood at 35±2° C., in a microaerophilic environment generated by CampyGen sachet. All fungal species (i.e. C. albicans and C. auris) were grown overnight on Sabouraud Dextrose Agar (SDA) plates at 35±2° C., ambient atmosphere.
as §2, with “Test article” for “Test articles”, “Compound 1” for “Compound 2”, “(batch #7G30A9.203) was” for “(batch #2G13A0.368) and Compound 23 (batch #2G17A0.372) were received and”
as §3, with “aeruginosa. S. pyogenes McFarland was diluted 1:180” for “aeruginosa, and”, “CAMHB+5%” for “CAVHIIB+5%”, “blood, while C. jejuni McFarland was diluted 1:180 in CAMHB+5% laked horse blood.” for “blood for S. pyogenes.”
(§6) For the yeasts C. albicans and C. auris, a McFarland 0.5 standard solution in sterile PBS was similarly prepared (approximately 1×10^6 CFU/mL) and was subsequently diluted 1:180 in RPMI 1640 media buffered with 0.165 M MOPS at pH 7.0 (herein referred to as “RPMI media”). 90 μL of the Candida inoculum was combined with 10 μL of the 10× test article in a 96-well plate for a final concentration of 1×.
(§7) Except for C. jejuni, all bacterial-strain MIC 96-well plates were incubated at 35±2° C. for 18 to 20 hours, ambient atmosphere. C. jejuni was incubated at 35±2° C. for 48 hours, under microaerophilic condition. All Candida MIC 96-well plates were incubated at 35±2° C. for 24 to 48 hours, ambient atmosphere, until growth in control wells were observed. After incubation, the 96-well plates were examined visually and on a spectrophotometer at absorbance OD650. MIC is defined as the lowest concentration of a compound in which no visible growth is observed.

[2] = system: Candida albicans ATCC 90028; assay: MIC microdilution assay (Example 32); type: cell-based; settings: Candida albicans, ATCC90028; C. albicans ATCC 90028 (quality control); RPMI media; 35±2° C. 24 to 48 hours; two values given; read-out: MIC
Experimental: as §5
as §2, with “Test article” for “Test articles”, “Compound 1” for “Compound 2”, “(batch #7G30A9.203) was” for “(batch #2G13A0.368) and Compound 23 (batch #2G17A0.372) were received and”
as §3, with “aeruginosa. S. pyogenes McFarland was diluted 1:180” for “aeruginosa, and”, “CAMHB+5%” for “CAVHIIB+5%”, “blood, while C. jejuni McFarland was diluted 1:180 in CAMHB+5% laked horse blood.” for “blood for S. pyogenes.”
as §6, §7

P. aeruginosa ATCC 27853 = assay: MIC microdilution assay; type: cell-based, Pseudomonas aeruginosa; settings: Pseudomonas aeruginosa, ATCC27853, CAMHB, 35±2° C. 18 to 20 hours, two values given, read-out: MIC
Experimental: as §1, §2, §3, §4

[3] = system: Candida albicans ATCC 90028; assay: MIC microdilution assay; type: cell-based; settings: Candida albicans, ATCC90028; C. albicans ATCC 90028; RPMI media; 35±2° C. 24 to 48 hours; two values given; read-out: MIC
Experimental: as §1, §2, §3, §6
All bacterial-strain MIC 96-well plates were incubated at 35±2° C. for 18 to 20 hours, while all Candida MIC 96-well plates were incubated at 35±2° C. for 24 to 48 hours. C. herbarum MIC 96-well plates were incubated at 25±2° C. for 3 to 5 days, until growth was visible in the growth control wells. After incubation, the 96-well plates were examined visually and on a spectrophotometer at absorbance OD650. MIC is defined as the lowest concentration of a compound in which no visible growth is observed.

MIC (S. pyogenes ATCC 51339; S. pyogenes ATCC 51339): 32 µg/mL (≈ 68.4 µM) | MIC (S. pyogenes ATCC 51339; Streptococcus pyogenes, ATCC51339, S. pyogenes ATCC 51339, read-out: MIC): 16 µg/mL (≈ 34.2 µM) | MIC [1]: > 32 µg/mL | MIC (Candida auris CDC 0385): > 32 µg/mL | MIC [2]: > 32 µg/mL | MIC (P. aeruginosa ATCC 27853): 0.25 µg/mL (≈ 0.535 µM) | MIC [3]: > 32 µg/mL
Compound: NC[C@H]1O[C@H](O[C@H]2[C@H](O)[C@@H](O[C@H]3O[C@H](CO)[C@@H](O)[C@H](N)[C@H]3O)[C@H](N)C[C@@H]2N)[C@H](N)C[C@@H]1O [Tobramycin]
